Data published in the NIST ThermoML archive (doi:10.1016/j.jct.2012.11.014).

Assay: xn = mol fraction of the nth substance listed
Conditions: 101 kPa, Liquid; for speed of sound: Frequency=2 MHz, Linear variable-path acoustic interferometer; for viscosity: Oscillating disk viscometry; for mass density: Vibrating tube method

C[NH+](C)C.O=S(=O)([O-])O [trimethylammonium hydrogen sulfate] + C[S+](C)[O-]
Conditions | mass density, 308.15 K [kg/m3] | mass density, 313.15 K [kg/m3] | speed of sound, 308.15 K [m/s] | speed of sound, 313.15 K [m/s] | viscosity, 308.15 K [mPa·s] | viscosity, 313.15 K [mPa·s]
x1 = 0.013 | 1093.72 | 1089.1 | 1462 | 1447 | 1.75 | 1.64
x1 = 0.0356 | 1106.81 | 1102.07 | 1466 | 1449 | 1.88 | 1.75
x1 = 0.0539 | 1116.99 | 1112.21 | 1469 | 1452 | 1.99 | 1.85
x1 = 0.0982 | 1141.18 | 1136.31 | 1476 | 1460 | 2.23 | 2.06
x1 = 0.1259 | 1155.67 | 1150.73 | 1478 | 1464 | 2.35 | 2.17
x1 = 0.1608 | 1173.53 | 1168.35 | 1484 | 1471 | 2.51 | 2.31
x1 = 0.1982 | 1191.94 | 1186.62 | 1490 | 1476 | 2.67 | 2.45
x1 = 0.2422 | 1212.56 | 1207.12 | 1494 | 1483 | 2.82 | 2.56
x1 = 0.2956 | 1236.49 | 1230.97 | 1500 | 1490 | 3 | 2.7
x1 = 0.3855 | 1274.01 | 1268.16 | 1510 | 1501 | 3.24 | 2.88
x1 = 0.4611 | 1303.22 | 1297.1 | 1516 | 1510 | 3.41 | 3
x1 = 0.545 | 1333.32 | 1326.92 | 1524 | 1516 | 3.54 | 3.08
x1 = 0.6387 | 1364.4 | 1357.69 | 1530 | 1525 | 3.68 | 3.14
x1 = 0.7076 | 1385.63 | 1378.66 | 1534 | 1530 | 3.73 | 3.16
x1 = 0.7823 | 1407.49 | 1400.24 | 1538 | 1536 | 3.81 | 3.18
x1 = 0.8444 | 1424.52 | 1417.09 | 1544 | 1540 | 3.85 | 3.18
x1 = 0.907 | 1440.98 | 1433.37 | 1547 | 1545 | 3.88 | 3.18
x1 = 0.9524 | 1452.15 | 1444.43 | 1552 | 1549 | 3.92 | 3.17
x1 = 1 | 1463.5 | 1455.63 | 1556 | 1552 | 3.94 | 3.16
